Results: US20210290676A1, “IMPROVING THE EFFICACY AND SAFETY OF ADOPTIVE CELLULAR THERAPIES” (University of Southern California, priority 2018, published 2021)

Legend:
Assay type in all cases: cell-based, human
[1] = tested on: Pgp+ (DiOC2(3)-dye effluxing) T cells; test: DiOC2(3) dye efflux flow cytometry of inhibitor-treated T cells; settings: treatment for 13 days, IL2 + CD3 and CD28 antibodies
Procedure: (§1) The use of P-glycoprotein (Pgp)-mediated efflux of DiOC2(3) to isolate stem like T cells for adoptive cellular therapy has been described in application no. […] In the following examples, DiOC2(3) staining was used to study the effect of different inhibitors on generation of stem like T cells.
(§2) DAY 0: Blood was obtained from unidentified donor. After RBC lysis, PBMC were collected using Ficoll-Hypaque separation. […] T cells were cultured in three different conditions: • 1. XVIVO 15 medium (Lonza) with IL2 50 IU/ml, CD3 antibody (30 ng/ml) and CD28 antibody (30 ng/ml). • 2. XVIVO 15 medium (Lonza) with CD3 antibody (30 ng/ml) and CD28 antibody (30 ng/ml). • 3. XVIVO 15 medium (Lonza) with IL2 50 IU/ml DAY 1: Cells were plated in a 6-well plate at a density of 1 million cells in 2 ml/of media (as described above) and treated with different inhibitors
(§3) The cell growth medium was changed in 6-well plates and fresh drugs were added at same concentration for one more week.
(§4) […] (DAY 11): Culture medium was changed and fresh drugs were added in 6-well plates.
(§5) Subsequently, cells were washed with RPMI medium and dye was effluxed at 37° C. for 90 min. Cells were washed with […], stained with CD62L-APC (5 μl/100 μl/sample) at 4° C. for 1 h, washed twice with PBS+1% FBS and analyzed on flow cytometer to check if these drugs treatment leads to increase in Pgp+/CD62L positive population.
(§6) Day 0: Blood was obtained from unidentified donor. After RBC lysis, PBMC were collected using Ficoll-Hypaque separation. 200 million T cells were isolated from PBMCs using CD3 microbeads. T cells were cultured overnight in XVIVO 15 medium (Lonza) with IL2 (50 IU/ml), 30 ng/ml of CD3 and CD28 antibodies
(§7) Day 1: Cells were plated in 24-well plates at a density of 0.3 million cells/ml in each well and treated with different drugs.
(§8) On day 7, culture medium was replaced with fresh medium with fresh drugs.
(§9) On day 13, culture medium was replaced with fresh medium and fresh drugs. Half of the cells were transferred to 6-well plates.
(§10) Day 14: An aliquot of cells with all the treatments listed above (for 13 days) was used to stain the cells with DiOC2(3) (60 ng/ml in RPMI medium) at 4° C. for 40 min, washed with RPMI medium, DiOC2(3) dye was effluxed at 37° C. for 90 min, washed with PBS+1% FBS, stained with CD62L-APC antibody. CD62L is a marker for resting T cells. (5 μl/100 μl/sample) at 4° C. for 1 h, washed twice with PBS+1% FBS and analyzed on flow cytometer to check if these drugs are affecting the dye-effluxing or Pgp+ (i.e., DiOC2(3)-dull) T-cell population.

[2] = tested on: Pgp+ (DiOC2(3)-dye effluxing cells) and CD62L+ T cells; test: DiOC2(3) dye efflux plus CD62L-APC staining, flow cytometry of inhibitor-treated T cells; settings: treatment for 13 days, IL2 + CD3 and CD28 antibodies
Procedure: as §1, §2, §3, §4, §5, §6, §7, §8, §9, §10

[3] = tested on: CD8+CD45RA+CCR7+CD62L+ T cells; test: Flow cytometry for CD8, CD45RA, CCR7 and CD62L on inhibitor-treated T cells; settings: cells cultured for 14 days
Procedure: as §2
(§11) A second aliquot of the cells cultured for 13 days with all the treatments listed above (1-21) was washed with PBS+1% FBS, stained with CD8-PerCP, CD45RA-FITC, CCR7-PE and CD62L-APC (5% Y/100 μl/sample for each of 4 antibodies) at 4° C. for 1 h, washed twice with PBS+100 FBS and analyzed on flow cytometer to check if these drugs are enriching T stem cells showing surface expression of CD8+CD45RA+CCR7+CD62L+.
as §6, §7, §8, §9
as §11, with “14” for “13”, “above” for “above (1-21)”, “(5 ul/100 ul/sample” for “(5% Y/100 μl/sample”, “PBS+1%” for “PBS+100”, “enriching for” for “enriching”, “T” for “T stem”

[4] = tested on: CD45RA+CCR7+CD62L+ T cells; test: Flow cytometry for CD45RA, CCR7 and CD62L on inhibitor-treated T cells (all T cells); settings: cells cultured for 14 days
Procedure: as §2, §11, §6, §7, §8, §9
as §11, with “14” for “13”, “above” for “above (1-21)”, “(5 ul/100 ul/sample” for “(5% Y/100 μl/sample”, “PBS+1%” for “PBS+100”, “enriching for” for “enriching”, “T” for “T stem”

O=C1CN=C(c2ccc[nH]2)c2cc(Cl)ccc2N1 [R05335]
p2: pgp+ from Live cells ([1]; 100 nM): 14.71
p2: pgp+ from Live cells ([1]; 500 nM): 16.22
p5: double +ve pgp+ and CD62L-APC+ from Live cells ([2]; 100 nM): 2.55
p5: double +ve pgp+ and CD62L-APC+ from Live cells ([2]; 500 nM): 2.3
GATE P4 CD8(PerCP)+, CD45RA(FITC)+, CCR7 (PE)+, CD62L(APC) ([3]; 500 nM): 79.9%
GATE P6 CD45RA(FITC)+, CCR7 (PE)+, CD62L(APC) ([4]; 500 nM): 69.95%

CCc1sc(N)nc1-c1ccc(OC)cc1 [CBFB]
p2: pgp+ from Live cells ([1]; 500 nM): 16.01
p2: pgp+ from Live cells ([1]; 1 μM): 20.93
p5: double +ve pgp+ and CD62L-APC+ from Live cells ([2]; 500 nM): 2.85
p5: double +ve pgp+ and CD62L-APC+ from Live cells ([2]; 1 μM): 3.56
GATE P4 CD8(PerCP)+, CD45RA(FITC)+, CCR7 (PE)+, CD62L(APC) ([3]; 500 nM): 74.77%
GATE P4 CD8(PerCP)+, CD45RA(FITC)+, CCR7 (PE)+, CD62L(APC) ([3]; 1 μM): 74.12%
GATE P6 CD45RA(FITC)+, CCR7 (PE)+, CD62L(APC) ([4]; 500 nM): 64.71%
GATE P6 CD45RA(FITC)+, CCR7 (PE)+, CD62L(APC) ([4]; 1 μM): 65.61%
